By Ki is commonly meant the equilibrium dissociation constant of an inhibitor or competing ligand from its target. The Kb is the equilibrium dissociation constant of an antagonist, usually derived from a functional assay. High values mean lower antagonist affinity, low ones higher antagonist affinity. What is called melting point is the temperature, or range, at which the solid turns liquid.

Eleven compounds from patent publication US7273880B2, “Selective NPY (Y5) antagonists” (H. Lunbeck A/S, priority 1999, dated 2007) can be followed below.

Data set [1] concerns the target T1, human Y5 receptor (hNPY-5) (Homo sapiens, UniProt Q15761).
T1 construct: expressed in transfected cells; host or cells: mouse fibroblast LM(tk-) cells, e.g. L-hY5-7 (ATCC CRL-11995)
T1 sequence (Q15761 1-445): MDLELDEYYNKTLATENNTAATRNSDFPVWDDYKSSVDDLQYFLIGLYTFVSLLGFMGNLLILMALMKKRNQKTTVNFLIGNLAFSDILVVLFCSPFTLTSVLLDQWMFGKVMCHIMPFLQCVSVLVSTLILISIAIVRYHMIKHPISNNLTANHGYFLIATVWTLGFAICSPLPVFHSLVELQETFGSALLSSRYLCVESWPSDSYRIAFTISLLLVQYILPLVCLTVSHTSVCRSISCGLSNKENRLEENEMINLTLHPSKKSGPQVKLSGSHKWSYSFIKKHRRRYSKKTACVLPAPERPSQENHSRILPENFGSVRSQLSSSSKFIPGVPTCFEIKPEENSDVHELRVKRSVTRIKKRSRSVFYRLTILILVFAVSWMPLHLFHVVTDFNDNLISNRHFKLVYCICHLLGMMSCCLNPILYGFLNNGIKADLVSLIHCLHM
The data set can be described thus: Radioligand binding to membranes, cloned human Y5 receptor. The method in brief:
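Competition binding on membranes from stably transfected 293 or LM(tk-) cells, with 0.08 nM ¹²⁵I-PYY in pH 7.4 HEPES buffer plus 0.1% BSA, 120 min at 30 °C, filtration and counting. Nonspecific binding defined by 300 nM human NPY, or 100 nM human PP for Y4; nonlinear regression.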

The target in data set [2] is T2, human Y5 receptor (h NPY-5) (Homo sapiens, UniProt Q15761).
T2 construct: expressed in transfected cells; host or cells: mouse fibroblast LM(tk-) cells, e.g. L-hY5-7 (ATCC CRL-11995)
T2 sequence (Q15761 1-445): T1 sequence (Q15761 1-445)
The data set can be described thus: Functional assay: radioimmunoassay of cAMP. It counts as cell-based. To be noted: functional antagonism, forskolin-stimulated cAMP, cells stably transfected with human Y5. As to the method:
LM(tk-) cells stably transfected with the human Y5 receptor were routinely converted from an adherent monolayer to a viable suspension. Adherent cells were harvested with trypsin at the point of confluence, resuspended in a minimal volume of complete DMEM for a cell count, and further diluted to a concentration of 10^6 cells/ml in suspension media (10% bovine calf serum, 10% 10× Medium 199 (Gibco), 9 mM NaHCO3, 25 mM glucose, 2 mM L-glutamine, 100 units/ml penicillin/100 μg/ml streptomycin, and 0.05% methyl cellulose). The cell suspension was maintained in a shaking incubator at 37° C., 5% CO2 for 24 hours. Membranes harvested from cells grown in this manner may be stored as large, uniform batches in liquid nitrogen. Alternatively, cells may be returned to adherent cell culture in complete DMEM by distribution into 96-well microtiter plates coated with poly-D-lysine (0.01 mg/ml) followed by incubation at 37° C., 5% CO2 for 24 hours. Cells prepared in this manner yielded a robust and reliable NPY-dependent response in cAMP radio-immunoassays as further described hereinbelow.
Stably transfected cells were seeded into 96-well microtiter plates and cultured until confluent. To reduce the potential for receptor desensitization, the serum component of the media was reduced to 1.5% for 4 to 16 hours before the assay. Cells were washed in Hank's buffered saline, or HBS (150 mM NaCl, 20 mM HEPES, 1 mM CaCl2, 5 mM KCl, 1 mM MgCl2, and 10 mM glucose) supplemented with 0.1% bovine serum albumin plus 5 mM theophylline and pre-equilibrated in the same solution for 20 min at 37° C. in 5% CO2. Cells were then incubated 5 min with 10 μM forskolin and various concentrations of receptor-selective ligands. The assay was terminated by the removal of HBS and acidification of the cells with 100 mM HCl. Intracellular cAMP was extracted and quantified with a modified version of a magnetic bead-based radioimmunoassay (Advanced Magnetics, Cambridge, Mass.). The final antigen/antibody complex was separated from free ^125I-cAMP by vacuum filtration through a PVDF filter in a microtiter plate (Millipore, Bedford, Mass.). Filters were punched and counted for ^125I in a Packard gamma counter. Binding data were analyzed using nonlinear regression and statistical techniques available in the GraphPAD Prism package (San Diego, Calif.).

Data set [3] concerns the target hNPY-1,2,4 (human Y1, Y2, Y4 receptors). Kind of data set: Radioligand binding to membranes, cloned human Y1, Y2 and Y4 receptors. The conditions noted are these: one bound given for all three. As to the method:
Binding of the compounds of the present invention to human Y1, Y2, Y4, and Y5 receptors was evaluated using stably transfected 293 or LM(tk-) cells as described above. Stably transfected cell lines which may be used for binding assays include, for example, for the human Y1 receptor, 293-hY1-5 (deposited Jun. 4, 1996, under ATCC Accession No. CRL-12121), for the human Y2 receptor, 293-hY2-10 (deposited Jan. 27, 1994, under ATCC Accession No. CRL-11537), for the human Y4 receptor, L-hY4-3 (deposited Jan. 11, 1995, under ATCC Accession No. CRL-11779), and for human Y5 receptor, L-hY5-7 (deposited Nov. 15, 1995, under ATCC Accession No. CRL-11995). These cell lines were deposited with the American Type Culture Collection (ATCC), 10801 University Blvd., Manassas, Va. 20110-2209, U.S.A. under the provisions of the Budapest Treaty for the International Recognition of the Deposit of Microorganisms for the Purposes of Patent Procedure.
Membranes were harvested from COS-7 cells 48 hours after transient transfection. Adherent cells were washed twice in ice-cold phosphate buffered saline (138 mM NaCl, 8.1 mM Na2HPO4, 2.5 mM KCl, 1.2 mM KH2PO4, 0.9 mM CaCl2, 0.5 mM MgCl2, pH 7.4) and lysed by sonication in ice-cold sonication buffer (20 mM Tris-HCl, 5 mM EDTA, pH 7.7). Large particles and debris were cleared by low speed centrifugation (200×g, 5 min, 4° C.). Membranes were collected from the supernatant fraction by centrifugation (32,000×g, 18 min, 4° C.), washed with ice-cold hypotonic buffer, and collected again by centrifugation (32,000×g, 18 min, 4° C.). The final membrane pellet was resuspended by sonication into a small volume of ice-cold binding buffer (˜1 ml for every 5 plates: 10 mM NaCl, 20 mM HEPES, 0.22 mM KH2PO4, 1.26 mM CaCl2, 0.81 mM MgSO4, pH 7.4). Protein concentration was measured by the Bradford method (Bradford, 1976) using Bio-Rad Reagent, with bovine serum albumin as a standard. Membranes were held on ice for up to one hour and used fresh, or flash-frozen and stored in liquid nitrogen.
Membranes were prepared similarly from 293, LM(tk-), and NIH-3T3 cells. To prepare membranes from baculovirus infected cells, 2×10^7 Sf21 cells were grown in 150 mm tissue culture dishes and infected with a high-titer stock of hY5BB3. Cells were incubated for 2-4 days at 27° C., no CO2 before harvesting and membrane preparation as described above.
Membrane suspensions were diluted in binding buffer supplemented with 0.1% bovine serum albumin to yield an optimal membrane protein concentration so that ^125I-PYY (or alternative radioligand such as ^125I-NPY, ^125I-PYY3-36, or ^125I-[Leu^31Pro^34]PYY) bound by membranes in the assay was less than 10% of ^125I-PYY (or alternative radioligand) delivered to the sample (100,000 dpm/sample=0.08 nM for competition binding assays). ^125I-PYY (or alternative radioligand) and peptide competitors were also diluted to desired concentrations in supplemented binding buffer. Individual samples were then prepared in 96-well polypropylene microtiter plates by mixing 125I-PYY (25 μL) (or alternative radioligand), competing peptides or supplemented binding buffer (25 μL), and finally, membrane suspensions (200 μL). Samples were incubated in a 30° C. water bath with constant shaking for 120 min. Incubations were terminated by filtration over Whatman GF/C filters (pre-coated with 1% polyethyleneimine and air-dried before use), followed by washing with 5 mL of ice-cold binding buffer. Filter-trapped membranes were impregnated with MeltiLex solid scintillant (Wallac, Turku, Finland) and counted for ^125I in a Wallac Beta-Plate Reader. Alternatively, incubations were carried out in GF/C filter plates (pre-coated with 1% polyethyleneimine and air-dried before use), followed by vacuum filtration and three washes of 300 μL of ice-cold binding buffer. 50 μL of UltimaGold (Packard) scintillant were added and counted for ^125I in a Wallac MicroBeta Trilux. […]

The mark [4] stands for this setting: binding Ki as repeated in Table 4, read-out: Ki (h NPY-5).
Setting [5] is: cloned human NPY Y5 receptor, radioligand competition binding, Tables 1-3, read-out: Ki, nM hNPY-5.

Structures are written as SMILES. Read-outs that look alike come from different tables or passages of the source. Bounds are passed on as bounds.

Regarding `COc1ccc(C)cc1S(=O)(=O)NCCCCCNc1nc2c(s1)CCCc1ccc(F)cc1-2` [Example 15, 1-Aza-9-fluoro-4,5-dihydro-2-(5-(2-methoxy-5-methyl-phenyl)sulfonylamino)pentylamino-3-thia-benzo[e]-azulene], the Ki in data set [1] (setting [4]) and in data set [1] (setting [5]) was 3.2 nM throughout. The Kb in data set [2] was 2.51 nM.

`CS(=O)(=O)NC[C@H]1CC[C@H](Nc2nc3c(s2)CCOc2ccccc2-3)CC1` [Example 47, trans-N2-(4-Methylsulfonylaminomethyl)cyclohexyl-4,5-dihydro-benzo[2,3]oxepino[4,5-d][1,3]thiazol-2-amine] came in with a melting point of 67 to 69 °C. This compound also returned a Ki in data set [3] of over 10000 nM. The Ki in data set [1] (setting [5]) amounted to 22 nM.

The compound `CCN(CC)S(=O)(=O)N[C@H]1CC[C@H](Nc2nc3c(s2)CCCc2ccc(F)cc2-3)CC1` [Example 35, trans-1-Aza-9-fluoro-4,5-dihydro-2-(4-diethylamino-sulfonylamino)cyclohexylamino-3-thia-benzo[e]azulene] showed a melting point of 172 to 174 °C. In addition, in data set [3], the Ki was over 10000 nM. Moreover, the Ki in data set [1] (setting [5]) amounted to 6.5 nM.

`Cn1cnc(S(=O)(=O)NCCCCCNc2nc3c(s2)CCCc2ccc(F)cc2-3)c1` [Example 23, 1-Aza-9-fluoro-4,5-dihydro-2-(5-(1-methylimidazol-4-yl)sulfonylamino)pentylamino-3-thia-benzo[e]azulene] registered a melting point of 50 to 53 °C. In data set [3], this compound showed a Ki of over 10000 nM. Moreover, in data set [1] (setting [5]), the Ki was 15.5 nM.

Compound `COC[C@@H]1CCCN1S(=O)(=O)c1ccc(Nc2nc3c(s2)CCCc2ccc(F)cc2-3)cc1` [Example 9, 1-Aza-9-fluoro-4,5-dihydro-2-(4-((2(S)-methoxy-methyl)-pyrrolidine-1-yl)sulfonyl)phenylamino-3-thia-benzo[e]azulene] showed a melting point of 186 to 188 °C. Also, the Ki in data set [3] is over 10000 nM. In addition, the Ki in data set [1] (setting [5]) turned out to be 15.4 nM.

For `O=C1OCCN1C[C@H]1CC[C@H](Nc2nc3c(s2)CCCc2ccc(F)cc2-3)CC1` [Example 79, 3-({4-[(9-fluoro-5,6-dihydro-4H-benzo[6,7]cyclohepta-[d][1,3]thiazol-2-yl)amino]cyclohexyl}methyl)-1,3-oxazolan-2-one], the values for the Ki in data set [1] (setting [4]) and in data set [1] (setting [5]) were 20.1 nM and 20 nM, respectively. Besides, in data set [2], the Kb is 12.6 nM.

Regarding `NS(=O)(=O)NC[C@H]1CC[C@H](Nc2nc3c(s2)CCOc2ccccc2-3)CC1` [Example 46, trans-N2-(4-Aminosulfonylaminomethyl)cyclohexyl-4,5-dihydro-benzo[2,3]oxepino[4,5-d][1,3]thiazol-2-amine], the melting point lay in the range of 170 to 173 °C. In data set [3], this compound displayed a Ki of over 10000 nM. Moreover, the Ki in data set [1] (setting [5]) came to 34 nM.

In turn, `O=S(=O)(NCCCCCNc1nc2c(s1)CCCc1ccc(F)cc1-2)c1cccs1` [Example 19, 1-Aza-9-fluoro-4,5-dihydro-2-(5-(2-thienyl)-sulfonylamino)-pentylamino-3-thia-benzo[e]azulene] had a melting point of 152 to 154 °C. The Ki in data set [3] is over 10000 nM. In data set [1] (setting [5]), the inhibition constant (Ki) turned out to be 5 nM.

`CS(=O)(=O)NCCCCC(=O)Nc1nc2c(s1)CCCc1ccc(F)cc1-2` [Example 45, N1-(9-fluoro-5,6-dihydro-4H-benzo[6,7]cyclohepta-[d][1,3]thiazol-2-yl)-5-[(methylsulfonyl)amino]-pentanamide] showed a melting point of 145 to 147 °C. Besides, the Ki in data set [3] was over 10000 nM. Further, in data set [1] (setting [5]), the Ki stood at 65 nM.

The compound `O=S(=O)(CC(F)(F)F)N[C@H]1CC[C@H](Nc2nc3c(s2)CCCc2ccc(F)cc2-3)CC1` [Example 38, trans-1-Aza-9-fluoro-4,5-dihydro-2-(4-(2,2,2-trifluoro-ethyl)sulfonylamino)cyclohexylamino-3-thia-benzo [e]azulene] showed a melting point of 89 to 91 °C. The Ki in data set [3] is over 10000 nM. For the same compound, the Ki in data set [1] (setting [5]) amounted to 15.8 nM.

In turn, `O=S(=O)(N[C@H]1CC[C@H](Nc2nc3c(s2)CCCc2ccc(F)cc2-3)CC1)c1cccs1` [Example 37, trans-1-Aza-9-fluoro-4,5-dihydro-2-(4-(2-thienyl)-sulfonyl-amino)cyclohexylamino-3-thia-benzo[e]azulene] had a melting point of 230 to 231 °C. In data set [3], this compound showed a Ki of over 10000 nM. Moreover, the Ki in data set [1] (setting [5]) is 7.4 nM.
